Ten compounds from ChEMBL document CHEMBL1811817, “Molecular docking studies and in vitro screening of new dihydropyridine derivatives as human MRP1 inhibitors” (Bioorg Med Chem, 2011) can be followed below.

The inhibition is the relative decrease from the control value, in per cent.

Series [1] concerns the target T1, Multidrug resistance-associated protein 1 (Homo sapiens, UniProt P33527). In words: Inhibition of vanadate-sensitive ATPase basal activity of human MRP1 expressed in Sf9 cells assessed as generation of inorganic phosphate at 10 uM by spectrophotometry in presence of glutathione. To be noted: sf9, 10 µM.
The target of series [2] is T2, MRP1 (Homo sapiens, UniProt P33527). In words: Inhibition of human MRP1 expressed in Spodoptera frugiperda Sf9 cells assessed as decrease in NEM-GS induced vanadate-sensitive ATPase activity measured by generation of inorganic phosphate at 30 uM by spectrophotometry in presence of glutathione. To be noted: Spodoptera frugiperda Sf9 cells expressing human MRP1, probe NEM-GS.

The target in series [3] is T1, Multidrug resistance-associated protein 1. In words: Inhibition of human MRP1 expressed in Spodoptera frugiperda Sf9 cells assessed as inhibition of NEM-GS-induced vanadate-sensitive ATPase activity measured by generation of inorganic phosphate by spectrophotometry in presence of glutathione.
The target in series [4] is T2, MRP1. As to the kind of experiment: Inhibition of human MRP1 expressed in Spodoptera frugiperda Sf9 cells assessed as decrease in NEM-GS induced vanadate-sensitive ATPase activity measured by generation of inorganic phosphate at 100 uM by spectrophotometry in presence of glutathione. As to conditions: Spodoptera frugiperda Sf9 cells expressing human MRP1, probe NEM-GS; call rule not given here.

T1 sequence (P33527 whole entry): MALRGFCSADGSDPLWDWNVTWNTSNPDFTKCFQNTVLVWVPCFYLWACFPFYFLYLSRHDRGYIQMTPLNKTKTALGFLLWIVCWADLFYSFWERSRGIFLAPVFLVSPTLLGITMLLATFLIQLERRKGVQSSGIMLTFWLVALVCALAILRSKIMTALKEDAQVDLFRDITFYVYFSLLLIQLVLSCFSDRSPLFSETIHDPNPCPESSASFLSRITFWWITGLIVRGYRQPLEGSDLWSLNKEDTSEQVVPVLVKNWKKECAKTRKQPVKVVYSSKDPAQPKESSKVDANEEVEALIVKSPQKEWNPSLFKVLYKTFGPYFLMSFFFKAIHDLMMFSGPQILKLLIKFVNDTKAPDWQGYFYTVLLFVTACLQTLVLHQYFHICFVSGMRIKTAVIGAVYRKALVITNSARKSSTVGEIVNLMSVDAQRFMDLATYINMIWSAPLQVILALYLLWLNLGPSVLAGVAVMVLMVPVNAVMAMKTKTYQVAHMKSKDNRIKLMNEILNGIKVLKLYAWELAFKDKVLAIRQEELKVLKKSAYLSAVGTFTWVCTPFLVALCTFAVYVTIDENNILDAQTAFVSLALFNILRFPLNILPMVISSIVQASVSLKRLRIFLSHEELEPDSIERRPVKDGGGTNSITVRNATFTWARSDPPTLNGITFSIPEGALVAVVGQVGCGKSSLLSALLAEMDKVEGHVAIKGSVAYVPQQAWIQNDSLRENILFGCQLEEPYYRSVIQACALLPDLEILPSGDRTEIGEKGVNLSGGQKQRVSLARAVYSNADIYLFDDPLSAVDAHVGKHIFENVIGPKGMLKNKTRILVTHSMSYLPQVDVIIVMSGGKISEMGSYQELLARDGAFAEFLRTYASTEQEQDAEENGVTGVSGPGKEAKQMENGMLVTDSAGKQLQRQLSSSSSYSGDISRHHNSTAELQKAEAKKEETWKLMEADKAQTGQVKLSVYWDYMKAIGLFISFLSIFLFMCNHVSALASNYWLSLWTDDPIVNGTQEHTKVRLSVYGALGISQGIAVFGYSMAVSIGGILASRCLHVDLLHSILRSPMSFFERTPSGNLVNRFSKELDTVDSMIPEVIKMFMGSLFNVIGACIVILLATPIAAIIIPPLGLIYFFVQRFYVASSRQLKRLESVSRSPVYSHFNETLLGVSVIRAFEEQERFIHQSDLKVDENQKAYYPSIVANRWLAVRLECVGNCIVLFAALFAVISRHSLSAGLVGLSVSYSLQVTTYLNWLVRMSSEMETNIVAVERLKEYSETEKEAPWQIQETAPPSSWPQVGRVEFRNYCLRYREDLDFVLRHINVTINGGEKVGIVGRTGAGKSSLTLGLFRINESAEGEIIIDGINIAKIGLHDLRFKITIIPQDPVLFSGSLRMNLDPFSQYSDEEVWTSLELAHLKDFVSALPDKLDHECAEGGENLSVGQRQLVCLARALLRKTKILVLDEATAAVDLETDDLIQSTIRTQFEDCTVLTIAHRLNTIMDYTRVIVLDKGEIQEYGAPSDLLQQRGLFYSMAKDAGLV
T2 sequence (P33527 whole entry): as above

On to `CC1=C(C(=O)Nc2ccccc2)C(c2ccco2)C(C(=O)Nc2ccccc2)=C(C)N1`, for which, in series [1], the “inhibition (INH)” value was “Active”. Moreover, the inhibition at 30 µM on MRP1 [2] stood at 52.8%.

Consider `CC1=C(C(=O)Nc2ccccc2)C(c2ccccn2)C(C(=O)Nc2ccccc2)=C(C)N1`, for which, in series [3], the “inhibition (INH)” value was “Not Active”. For `CC1=C(C(=O)Nc2ccccc2)C(c2cccs2)C(C(=O)Nc2ccccc2)=C(C)N1`, in series [3], the “inhibition (INH)” value is “Not Active”. Still for that read-out and setting: in the case of `CC1=C(C(=O)Nc2ccccc2)C(c2ncc[nH]2)C(C(=O)Nc2ccccc2)=C(C)N1` it was “Not Active”. In the case of `CC1=C(C(=O)Nc2ccccc2)C(c2ccc[nH]2)C(C(=O)Nc2ccccc2)=C(C)N1`, the “inhibition (INH)” value in series [3] was “Not Active”. As to `CC1=C(C(=O)Nc2ccccc2)C(c2ccc(Cl)cc2)C(C(=O)Nc2ccccc2)=C(C)N1`, in series [3], the “inhibition (INH)” value is recorded as “Not Active”. Same read-out and setting: to `CC1=C(C(=O)Nc2ccccn2)C(c2ccco2)C(C(=O)Nc2ccccn2)=C(C)N1` belongs “Not Active”. In the case of `CC1=C(C(=O)Nc2ccccn2)C(c2ncc[nH]2)C(C(=O)Nc2ccccn2)=C(C)N1`, the “inhibition (INH)” value in series [3] is “Not Active”. As for `CC1=C(C(=O)Nc2ccccn2)C(c2ccc[nH]2)C(C(=O)Nc2ccccn2)=C(C)N1`, in series [1], the “inhibition (INH)” value is “Active”. Moreover, the inhibition at 30 µM at MRP1 [2] came out at 69.8%. Moreover, the inhibition at 100 µM at MRP1 [4] was 78%. Turning to `CC1=C(C(=O)Nc2ccc(C)cc2)C(c2ncc[nH]2)C(C(=O)Nc2ccc(C)cc2)=C(C)N1`, the “inhibition (INH)” value in series [3] is reported as “Not Active”.
